Experimental data from article PMC12366332 (Applied and Environmental Microbiology, 2025).
Like-named read-outs stand apart in the source and are kept apart here. Square brackets hold non-standard residues; d marks the D form. Ends that are not written are not given here. Peptide text beside a SMILES is read from it. * marks the point of attachment. Butyryl = CCCC(=O)*

What was measured:
[1] = system: X. fastidiosa subsp. fastidiosa IVIA 5387.2
[2] = system: horse erythrocytes; details: red cells of horse, 50 µM
[3] = system: tobacco leaves; details: 150 µM; after 48 h
[4] = system: E. coli 0111:B4 LPS; assay type: biochemical, Escherichia coli

Molecule	Bactericidal activity Level ([1]; 50 µM)	Bactericidal activity Reduction in viability (Log N0/N) ([1]; 50 µM)	Hemolytic activity (%) [2] [%]	Phytotoxicity: diameter of the lesion [3] [mm]	LPS neutralization Ratio (treatment/NTC) [4]	Bactericidal activity Reduction in viability (Log N0/N) ([1]; 12.5 µM)
NIKISGKWKAQKRFLK-NH2 [BPI(84-99), NIKISGKWKAQKRFLK-NH2, reference compound]	Low (key: Very High: very high bactericidal activity (>2.5 log); High: high bactericidal activity (between 2.0 and 2.5 log); Moderate: a moderate activity (between 1.5 and 2.0 log); Low: low active (<1.5 log))	0,84 Log N0/N	7	1	0,29	–
CCCCCC(=O)NCCCC[C@H](NC(=O)[C@H](CCCCN)NC(=O)[C@H](CCCCN)NC(=O)[C@@H](Cc1ccccc1)NC(=O)[C@H](CC(C)C)NC(=O)[C@H](CCCCN)NC(=O)[C@H](CCCCN)NC(C)=O)C(=O)N[C@@H](CC(C)C)C(=O)N[C@@H](CCCCN)C(=O)N[C@@H](Cc1ccc(O)cc1)C(=O)N[C@@H](CC(C)C)C(N)=O [BP494, Ac-KKLfKKK(COC5H11)LKYL-NH2]	Low (key: Very High: very high bactericidal activity (>2.5 log); High: high bactericidal activity (between 2.0 and 2.5 log); Moderate: a moderate activity (between 1.5 and 2.0 log); Low: low active (<1.5 log))	1,21 Log N0/N	0	6	0,51	–
CCCCCC(=O)NCCCC[C@H](NC(=O)[C@H](Cc1ccc(O)cc1)NC(=O)[C@H](CCCCN)NC(=O)[C@H](CC(C)C)NC(=O)[C@@H](NC(=O)[C@H](CCCCN)NC(=O)[C@H](CCCCN)NC(=O)[C@@H](Cc1ccccc1)NC(=O)[C@H](CC(C)C)NC(=O)[C@H](CCCCN)NC(=O)[C@H](CCCCN)NC(C)=O)[C@@H](C)CC)C(N)=O [BP495, Ac-KKLfKKILKYK(COC5H11)-NH2]	High (key: Very High: very high bactericidal activity (>2.5 log); High: high bactericidal activity (between 2.0 and 2.5 log); Moderate: a moderate activity (between 1.5 and 2.0 log); Low: low active (<1.5 log))	–	0	6	0,55	0,03 Log N0/N
RVQGRWKVRASFFK-NH2 [LBP-14, RVQGRWKVRASFFK-NH2, reference compound]	Low (key: Very High: very high bactericidal activity (>2.5 log); High: high bactericidal activity (between 2.0 and 2.5 log); Moderate: a moderate activity (between 1.5 and 2.0 log); Low: low active (<1.5 log))	0,51 Log N0/N	7	1	0,23	–
CCCC(=O)NCCCC[C@H](NC(=O)[C@H](Cc1ccc(O)cc1)NC(=O)[C@H](CCCCN)NC(=O)[C@H](CC(C)C)NC(=O)[C@@H](NC(=O)[C@H](CCCCN)NC(=O)[C@H](CCCCN)NC(=O)[C@@H](Cc1ccccc1)NC(=O)[C@H](CC(C)C)NC(=O)[C@H](CCCCN)NC(=O)[C@H](CCCCN)NC(C)=O)[C@@H](C)CC)C(N)=O [BP496, Ac-KKLfKKILKYK(COC3H7)-NH2] (Ac-KKL[dF]KKILKYK(Butyryl)-NH2)	Low (key: Very High: very high bactericidal activity (>2.5 log); High: high bactericidal activity (between 2.0 and 2.5 log); Moderate: a moderate activity (between 1.5 and 2.0 log); Low: low active (<1.5 log))	0,69 Log N0/N	0	4	0,92	–
